pEC50: −log10 of the molar value.
Assays:
rhinovirus B14 [1] = test: Antiviral activity against 0.02 MOI HRV14 infected in human H1-HeLa cells assessed as cell killing after 5 passages for 22 days by XTT assay; assay type: functional
rhinovirus B14 [2] = test: Ratio of EC50 for HRV14 infected in human H1-HeLa cells after 8 passages for 40 days to EC50 for wild type HRV14 infected in human H1-HeLa cells; assay type: functional
rhinovirus B14 [3] = test: Ratio of EC50 for HRV14 infected in human H1-HeLa cells after 9 passages for 48 days to EC50 for wild type HRV14 infected in human H1-HeLa cells; assay type: functional
rhinovirus B14 [4] = test: Ratio of EC50 for HRV14 infected in human H1-HeLa cells after 10 passages for 55 days to EC50 for wild type HRV14 infected in human H1-HeLa cells; assay type: functional
rhinovirus A2 [5] = test: Ratio of EC50 for HRV2 with 3C protease N165T mutation infected in human H1-HeLa cells after 4 passages for 24 days to EC50 for wild type HRV2 infected in human H1-HeLa cells; assay type: functional
rhinovirus A39 [6] = test: Ratio of EC50 for HRV39 infected in human H1-HeLa cells after 1 passage for 7 days to EC50 for wild type HRV39 infected in human H1-HeLa cells; assay type: functional
rhinovirus A39 [7] = test: Ratio of EC50 for HRV39 infected in human H1-HeLa cells after 5 passages for 29 days to EC50 for wild type HRV39 infected in human H1-HeLa cells; assay type: functional
rhinovirus A39 [8] = test: Antiviral activity against wild type HRV39 infected in human H1-HeLa cells assessed as virus-induced cytopathic effect after 3 days by XTT assay; assay type: functional, organism-based; conditions: Rhinovirus A, 72 h
rhinovirus B14 [9] = test: Ratio of EC50 for HRV14 infected in human H1-HeLa cells after 12 passages for 72 days to EC50 for wild type HRV14 infected in human H1-HeLa cells; assay type: functional
rhinovirus B14 [10] = test: Antiviral activity against HRV14 with 3C protease T129A, T131T/A, T143P mutation infected in human H1-HeLa cells assessed as virus-induced cytopathic effect after 4 passages for 17 days by XTT assay; assay type: functional, organism-based; conditions: Rhinovirus B, 408 h
rhinovirus B14 [11] = test: Antiviral activity against HRV14 with 3C protease T129A, T131T/A, T143P mutation infected in human H1-HeLa cells assessed as virus-induced cytopathic effect after 5 passages for 22 days by XTT assay; assay type: functional, organism-based; conditions: Rhinovirus B, 528 h
rhinovirus B14 [12] = test: Antiviral activity against HRV14 with 3C protease A121A/V, T129A, T131A, N132S, Y139Y/H, T143P mutation infected in human H1-HeLa cells assessed as virus-induced cytopathic effect after 12 passages for 72 days by XTT assay; assay type: functional, organism-based; conditions: Rhinovirus B
rhinovirus B14 [13] = test: Ratio of EC50 for HRV14 with 3C protease T129T/A, T131T/A, T143P/S mutation infected in human H1-HeLa cells after 3 passages for 14 days to EC50 for wild type HRV14 infected in human H1-HeLa cells; assay type: functional
rhinovirus A39 [14] = test: Antiviral activity against HRV39 with 3C protease S105T, N130K, L136F mutation infected in human H1-HeLa cells assessed as virus-induced cytopathic effect after 9 passages for 50 days by XTT assay; assay type: functional, organism-based; conditions: Rhinovirus A
rhinovirus A39 [15] = test: Ratio of EC50 for HRV39 with 3C protease […], L136/F mutation infected in human H1-HeLa cells after 5 passages for 29 days to EC50 for wild type HRV39 infected in human H1-HeLa cells; assay type: functional
Human rhinovirus sp. [16] = test: Ratio of EC50 for HRV Hanks infected in human H1-HeLa cells after 1 passage for 7 days to EC50 for wild type HRV Hanks infected in human H1-HeLa cells; assay type: functional
Human rhinovirus sp. [17] = test: Antiviral activity against HRV Hanks with 3C protease T130A mutation infected in human H1-HeLa cells assessed as virus-induced cytopathic effect after 6 passages for 40 days by plaque reduction assay; assay type: functional, organism-based
rhinovirus B14 [18] = test: Ratio of EC50 for HRV14 with 3C protease T129A, T131T/A, T143P mutation infected in human H1-HeLa cells after 4 passages for 17 days to EC50 for wild type HRV14 infected in human H1-HeLa cells; assay type: functional
rhinovirus B14 [19] = test: Ratio of EC50 for HRV14 with 3C protease with T129A, T131T/A, T143P mutation infected in human H1-HeLa cells after 5 passages for 22 days to EC50 for wild type HRV14 infected in human H1-HeLa cells; assay type: functional
rhinovirus B14 [20] = test: Ratio of EC50 for HRV14 with 3C protease with A121A/V, T129A, T131A, T143P, Y139Y/H mutation infected in human H1-HeLa cells after 11 passages for 65 days to EC50 for wild type HRV14 infected in human H1-HeLa cells; assay type: functional
rhinovirus B14 [21] = test: Antiviral activity against HRV14 with 3C protease Y139H mutation infected in human H1-HeLa cells assessed as virus-induced cytopathic effect after 3 days by XTT assay; assay type: functional, organism-based; conditions: Rhinovirus B, 72 h
rhinovirus B14 [22] = test: Antiviral activity against HRV14 with 3C protease T143P mutation infected in human H1-HeLa cells assessed as virus-induced cytopathic effect after 3 days by XTT assay; assay type: functional, organism-based; conditions: Rhinovirus B, 72 h
rhinovirus B14 [23] = test: Antiviral activity against HRV14 with 3C protease T129A, T131A, Y139H, T143P mutation infected in human H1-HeLa cells assessed as virus-induced cytopathic effect after 3 days by XTT assay; assay type: functional, organism-based; conditions: Rhinovirus B, 72 h
rhinovirus B14 [24] = test: Ratio of EC50 for HRV14 with 3C protease T131A mutation infected in human H1-HeLa cells to EC50 for wild type HRV14 infected in human H1-HeLa cells; assay type: functional
rhinovirus B14 [25] = test: Ratio of EC50 for HRV14 with 3C protease T129A, T131A, Y139H, T143P mutation infected in human H1-HeLa cells to EC50 for wild type HRV14 infected in human H1-HeLa cells; assay type: functional
rhinovirus A2 [26] = test: Ratio of EC50 for HRV2 infected in human H1-HeLa cells after 1 passage for 6 days to EC50 for wild type HRV2 infected in human H1-HeLa cells; assay type: functional
rhinovirus A2 [27] = test: Ratio of EC50 for HRV2 infected in human H1-HeLa cells after 3 passages for 17 days to EC50 for wild type HRV2 infected in human H1-HeLa cells; assay type: functional
rhinovirus A2 [28] = test: Ratio of EC50 for HRV2 infected in human H1-HeLa cells after 7 passages for 45 days to EC50 for wild type HRV2 infected in human H1-HeLa cells; assay type: functional
rhinovirus A2 [29] = test: Ratio of EC50 for HRV2 infected in human H1-HeLa cells after 10 passages for 66 days to EC50 for wild type HRV2 infected in human H1-HeLa cells; assay type: functional
rhinovirus A2 [30] = test: Antiviral activity against HRV2 with 3C protease N165T mutation infected in human H1-HeLa cells assessed as virus-induced cytopathic effect after 6 passages for 37 days by XTT assay; assay type: functional, organism-based; conditions: Rhinovirus A
rhinovirus B14 [31] = test: Ratio of EC50 for HRV14 infected in human H1-HeLa cells after 1 passage for 6 days to EC50 for wild type HRV14 infected in human H1-HeLa cells; assay type: functional
rhinovirus B14 [32] = test: Ratio of EC50 for HRV14 infected in human H1-HeLa cells after 3 passages for 14 days to EC50 for wild type HRV14 infected in human H1-HeLa cells; assay type: functional

## CCOC(=O)/C=C/[C@H](C[C@@H]1CCNC1=O)NC(=O)[C@@H](CC(=O)[C@@H](NC(=O)c1cc(C)on1)C(C)C)Cc1ccc(F)cc1 [RUPINTRIVIR]
Rhinovirus B14 [1]
  Activity: 88.2%
Rhinovirus B14 [2]
  Ratio EC50: 40
Rhinovirus B14 [3]
  Ratio EC50: 60
Rhinovirus B14 [4]
  Ratio EC50: 90
Rhinovirus A2 [5]
  Ratio EC50: 2
Rhinovirus A39 [6]
  Ratio EC50: 3
Rhinovirus A39 [7]
  Ratio EC50: 6
Rhinovirus A39 [8]
  pEC50: 7.62
Rhinovirus B14 [9]
  Ratio EC50: 90
Rhinovirus B14 [10]
  pEC50: 6.64
Rhinovirus B14 [11]
  pEC50: 7.02
Rhinovirus B14 [12]
  pEC50: 6.38
Rhinovirus B14 [13]
  Ratio EC50: 7
Rhinovirus A39 [14]
  pEC50: 7.03
Rhinovirus A39 [15]
  Ratio EC50: 3
Human rhinovirus sp. [16]
  Ratio EC50: 1
Human rhinovirus sp. [17]
  pEC50: 7.29
Rhinovirus B14 [18]
  Ratio EC50: 11
Rhinovirus B14 [19]
  Ratio EC50: 5
Rhinovirus B14 [20]
  Ratio EC50: 16
Rhinovirus B14 [21]
  pEC50: 7.85
Rhinovirus B14 [22]
  pEC50: 7.82
Rhinovirus B14 [23]
  pEC50: 6.57
Rhinovirus B14 [24]
  Ratio EC50: 1
Rhinovirus B14 [25]
  Ratio EC50: 7
Rhinovirus A2 [26]
  Ratio EC50: 1
Rhinovirus A2 [27]
  Ratio EC50: 3
Rhinovirus A2 [28]
  Ratio EC50: 5
Rhinovirus A2 [29]
  Ratio EC50: 15
Rhinovirus A2 [30]
  pEC50: 7.17
Rhinovirus B14 [31]
  Ratio EC50: 3.5
Rhinovirus B14 [32]
  Ratio EC50: 5
